Where a chain is given by its changes, count along the chain named. Several values for one entry are separate records, joined by “and”; a condition that tells them apart may be missing. Equal values may be shown once. Read-outs that look alike come from different tables or passages of the source.
What was measured:
Type in all cases: cell-based
hTA1 C88/178S = biological target: T1, hTA1 C88/178S (Homo sapiens, UniProt Q96RJ0, C178S/C88S); test: GloSensor cAMP accumulation assay, C88S/C178S double mutant; settings: for Normalized Luminescence Counts (N=2): log[Compound], single replicate values
T1 construct: expressed in transfected cells; host or cells: HEK293T
T1 sequence (Q96RJ0 1-339 C88S/C178S): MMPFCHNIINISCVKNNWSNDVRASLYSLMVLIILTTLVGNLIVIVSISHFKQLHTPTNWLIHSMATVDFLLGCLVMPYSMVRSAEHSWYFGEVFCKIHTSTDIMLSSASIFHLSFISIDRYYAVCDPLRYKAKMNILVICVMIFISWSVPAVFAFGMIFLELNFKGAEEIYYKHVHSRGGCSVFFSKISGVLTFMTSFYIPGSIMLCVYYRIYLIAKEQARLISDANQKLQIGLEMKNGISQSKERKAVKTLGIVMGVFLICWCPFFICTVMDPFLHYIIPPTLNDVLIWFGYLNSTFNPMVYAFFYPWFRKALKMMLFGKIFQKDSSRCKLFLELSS

hTA1 C5S = biological target: T2, hTA1 C5S (Homo sapiens, UniProt Q96RJ0, C5S); test: GloSensor cAMP accumulation assay, C5S mutant; settings: for C5S - Normalized Luminescence Counts (N=2): log[Compound], single wells
T2 construct: expressed in transfected cells; host or cells: HEK293T
T2 sequence (Q96RJ0 1-339 C5S): T1 sequence (Q96RJ0 1-339 C88S/C178S) with C5S, S88C, S178C

hTA1 = biological target: T3, hTA1 (Homo sapiens, UniProt Q96RJ0); test: GloSensor cAMP accumulation assay, concentration response, wild-type hTA1 in transfected HEK293T cells; settings: for Emax: HEK-293T;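 as to all read-outs here: luminescence read after 30 min compound exposure at room temperature in cells preloaded with D-Luciferin, reflecting Gs-driven cAMP rise, efficacy scaled to the maximal β-PEA response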
T3 construct: expressed in transfected cells; host or cells: HEK293T
T3 sequence (Q96RJ0 1-339): T1 sequence (Q96RJ0 1-339 C88S/C178S) with S88C, S178C

hTA1 V184P = biological target: T4, hTA1 V184P (Homo sapiens, UniProt Q96RJ0, V184P); test: GloSensor cAMP accumulation assay, V184P mutant; settings: for cAMP accumulation response, single replicate values (source data, Supplementary Figure 5): hTA1 V184P (N=2), log[Compound]
T4 construct: expressed in transfected cells; host or cells: HEK293T
T4 sequence (Q96RJ0 1-339 V184P): T1 sequence (Q96RJ0 1-339 C88S/C178S) with S88C, S178C, V184P

[1] = C88S, C178S, each row is one independent experiment, 3 replicates
[2] = hTA1 V184P mutant minus WT average

## CCc1[nH]nc(C(=O)Nc2ccc([C@H]3CNCCO3)cc2)c1C [ralmitaront]
hTA1 C88/178S; [1]
  ΔEmax values (each mutant value - WT average), Mean: 18.4827 and 32.9242
  ΔpEC50 values (each mutant value - WT average), Mean: -0.118 and 0.09825
hTA1 C88/178S; C88S, C178S, M = -5
  Normalized Luminescence Counts (N=2): 55.2389 and 58.8007 and 61.0622 and 66.9199 and 93.0497 and 63.144
hTA1 C88/178S; C88S, C178S, M = -5.522
  Normalized Luminescence Counts (N=2): 59.988 and 60.3272 and 50.3202 and 55.743 and 72.6594 and 83.3832
hTA1 C88/178S; C88S, C178S, M = -6
  Normalized Luminescence Counts (N=2): 50.4332 and 47.6629 and 57.5569 and 67.8262 and 71.7532 and 58.9149
hTA1 C88/178S; C88S, C178S, M = -6.522
  Normalized Luminescence Counts (N=2): 36.7513 and 35.5075 and 46.8149 and 59.519 and 56.6493 and 50.3056
hTA1 C88/178S; C88S, C178S, M = -7
  Normalized Luminescence Counts (N=2): 22.2779 and 25.1613 and 25.3874 and 33.9934 and 41.0922 and 21.3061
hTA1 C88/178S; C88S, C178S, M = -7.522
  Normalized Luminescence Counts (N=2): 14.9281 and 10.2921 and 11.3663 and 21.004 and 25.2331 and 32.0299
hTA1 C88/178S; C88S, C178S, M = -8
  Normalized Luminescence Counts (N=2): 4.13 and 3.564 and 4.525 and 7.562 and 10.4313 and 11.0354
hTA1 C88/178S; C88S, C178S, M = -8.522
  Normalized Luminescence Counts (N=2): 1.1331 and 2.8292 and 0.7939 and 5.598 and 0.6137 and 2.8793
hTA1 C88/178S; C88S, C178S, M = -9
  Normalized Luminescence Counts (N=2): 0.3981 and 0.4547 and 0.9635 and -0.2925 and -0.1415 and 0.7648
hTA1 C88/178S; C88S, C178S, M = -9.522
  Normalized Luminescence Counts (N=2): -0.2803 and 1.19 and 0.172 and -1.501 and -1.35 and -2.105
hTA1 C88/178S; C88S, C178S, M = -10
  Normalized Luminescence Counts (N=2): 0.0589 and 1.359 and 0.002362 and -0.8967 and -0.2925 and -1.35
hTA1 C88/178S; C88S, C178S, M = -10.522
  Normalized Luminescence Counts (N=2): 1.077 and 0.1154 and 0.002362 and -1.501 and -1.199 and -1.048
hTA1 C88/178S; C88S, C178S, M = -11
  Normalized Luminescence Counts (N=2): -0.2238 and 0.172 and 0.7373 and -1.35 and -0.1415 and -1.048
hTA1 C88/178S; C88S, C178S, M = -11.522
  Normalized Luminescence Counts (N=2): 0.0589 and 0.7373 and 0.5112 and -2.105 and 0.7648 and -0.8967
hTA1 C88/178S; C88S, C178S, M = -12
  Normalized Luminescence Counts (N=2): 0.5112 and 0.7939 and 5.317 and -0.4436 and -0.5946 and -1.048
hTA1 C88/178S; C88S, C178S, M = -12.522
  Normalized Luminescence Counts (N=2): 0.7373 (2×) and 1.416 and -1.199 and -0.7456 and -2.105
hTA1 C88/178S; C88S, C178S, normalized (β-PEA = 100), each row is one independent experiment, 3 replicates
  Emax values, Mean: 58.5968 and 73.0383
hTA1 C88/178S; read-out: Span ± SEM (Emax normalized to β-PEA)
  Emax: 65.8 ± 7.22%
hTA1 C5S; C5S, n=2, read-out: Span ± SEM (Emax normalized to β-PEA)
  Emax: 53 ± 3.33%
hTA1 C5S; hTA1 C5S minus WT average
  ΔEmax values (each mutant value - WT average), Mean: 16.2371 and 9.571
  ΔpEC50 values (each mutant value - WT average), Mean: -0.2888 and -0.07449
hTA1 C5S; hTA1 C5S, β-PEA = 100, mean of 3 replicates, one line per independent experiment
  Emax values, Mean: 49.6851
hTA1 C5S; hTA1 C5S, β-PEA = 100, mean of 3 replicates, one line per independent experiment, read-out: Emax values, Mean
  Emax: 56.4%
hTA1 C5S; M = -5
  C5S - Normalized Luminescence Counts (N=2): 56.5093 and 57.6833 and 45.4685 and 47.3256 and 58.0276 and 41.5948
hTA1 C5S; M = -5.522
  C5S - Normalized Luminescence Counts (N=2): 55.6739 and 48.0198 and 44.2267 and 42.3543 and 55.8182 and 41.3187
hTA1 C5S; M = -6
  C5S - Normalized Luminescence Counts (N=2): 54.1385 and 48.494 and 48.3811 and 37.8664 and 46.5661 and 38.2116
hTA1 C5S; M = -6.522
  C5S - Normalized Luminescence Counts (N=2): 36.3243 and 27.5639 and 26.277 and 37.3831 and 32.0666 and 36.4855
hTA1 C5S; M = -7
  C5S - Normalized Luminescence Counts (N=2): 17.0199 and 14.6491 and 16.7715 and 16.6005 and 20.1908 and 19.0861
hTA1
  Emax: 40.1%
hTA1; WT hTA1, β-PEA = 100, average of the two experiments, read-out: Emax values, Avg
  Emax: 40.1%
hTA1; WT hTA1, β-PEA = 100, each line an independent experiment, 3 replicates
  Emax values, Mean: 54.4399 and 25.7884
hTA1; WT, average of the experiments, β-PEA = 100
  Emax values, Avg: 40.11
hTA1; WT, average of the two experiments
  Emax values, Avg: 40.11
hTA1; WT, mean of each independent experiment (3 replicates), β-PEA = 100
  Emax values, Mean: 54.4399 and 25.7884
hTA1; WT, single experiments (3 replicates each), β-PEA = 100
  Emax values, Mean: 54.4399 and 25.7884
hTA1 V184P; V184P
  reduction in potency vs wild type: 2.5 fold
hTA1 V184P; V184P, n=2, read-out: Span ± SEM (Emax normalized to β-PEA)
  Emax: 48.73 ± 0.14%
hTA1 V184P; M = -5
  cAMP accumulation response, single replicate values (source data, Supplementary Figure 5): 56.1002 and 44.9467 and 51.6388 and 50.9599 and 51.6929 and 37.8383
hTA1 V184P; M = -5.522
  cAMP accumulation response, single replicate values (source data, Supplementary Figure 5): 38.6425 and 44.6557 and 34.0841 and 47.4046 and 55.1382 and 34.8694
hTA1 V184P; M = -6
  cAMP accumulation response, single replicate values (source data, Supplementary Figure 5): 32.8233 and 40.4853 and 30.6896 and 36.9953 and 42.3832 and 37.3618
hTA1 V184P; M = -6.522
  cAMP accumulation response, single replicate values (source data, Supplementary Figure 5): 24.4824 and 25.4523 and 22.4457 and 22.8108 and 28.9684 and 21.7112
hTA1 V184P; M = -7
  cAMP accumulation response, single replicate values (source data, Supplementary Figure 5): 14.7837 and 10.7102 and 14.2987 and 13.3178 and 19.622 and 12.4015
hTA1 V184P; M = -7.522
  cAMP accumulation response, single replicate values (source data, Supplementary Figure 5): 3.727 and 4.406 and 3.242 and 4.485 and 6.5 and 5.731
hTA1 V184P; M = -8
  cAMP accumulation response, single replicate values (source data, Supplementary Figure 5): 0.5265 and 1.302 and 1.5934 and 2.432 and 2.322 and 1.296
hTA1 V184P; M = -8.522
  cAMP accumulation response, single replicate values (source data, Supplementary Figure 5): 0.2356 and -0.3463 and -0.05538 and 1.699 and 1.076 and 0.2329
hTA1 V184P; M = -9
  cAMP accumulation response, single replicate values (source data, Supplementary Figure 5): 0.3326 and -0.2494 and -1.025 and -0.1703 and -0.2803 and -0.5368
hTA1 V184P; M = -9.522
  cAMP accumulation response, single replicate values (source data, Supplementary Figure 5): -0.8313 and -0.9283 and -1.316 and -0.5002 and -0.3902 and -0.3169
hTA1 V184P; M = -10
  cAMP accumulation response, single replicate values (source data, Supplementary Figure 5): -1.122 (2×) and -0.3463 and -0.94 and -0.3902 and -1.3432
hTA1 V184P; M = -10.522
  cAMP accumulation response, single replicate values (source data, Supplementary Figure 5): -0.9283 and -1.025 and -1.219 and -0.9034 and -1.123 and -1.673
hTA1 V184P; M = -11
  cAMP accumulation response, single replicate values (source data, Supplementary Figure 5): -0.9283 and -1.607 (2×) and -0.3902 (2×) and -0.1703
hTA1 V184P; M = -11.522
  cAMP accumulation response, single replicate values (source data, Supplementary Figure 5): -1.607 (2×) and -1.898 and 0.746 and -0.02371 and -0.5002
hTA1 V184P; M = -12
  cAMP accumulation response, single replicate values (source data, Supplementary Figure 5): -1.607 and -1.219 and -1.51 and -0.6835 and 0.4894 and -0.5735
hTA1 V184P; M = -12.522
  cAMP accumulation response, single replicate values (source data, Supplementary Figure 5): -0.7343 and -1.4132 and -1.025 and -0.6835 and -0.7568 and -1.087
hTA1 V184P; [2]
  ΔEmax values (each mutant value - WT average), Mean: 8.48 and 8.751
  ΔpEC50 values (each mutant value - WT average), Mean: -0.4311 and -0.3552
hTA1 V184P; hTA1 V184P mutant, β-PEA set to 100, each grid row a separate experiment, 3 replicates
  Emax values, Mean: 48.8655
hTA1 V184P; hTA1 V184P mutant, β-PEA set to 100, each grid row a separate experiment, 3 replicates, read-out: Emax values (Mean)
  Emax: 48.6%
